This note sets out measurements from patent publication US11691992B2 (Anacor Pharmaceuticals, Inc., priority 2017, dated 2023).

The first assay concerns luciferase-expressing L. major parasites developing intracellularly inside RAW 264.7 macrophages. As to the kind of experiment: Leishmania major intracellular amastigote assay in RAW 264.7 macrophages (luciferase). To be noted: RAW264.7, 96 hours, read-out: IC50: I Org. intracellular amastigote Growth L. major, 4 d. It is filed as cell-based. An outline of the steps: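 RAW 264.7 macrophages infected overnight with luciferase-expressing L. major promastigotes, washed of extracellular parasites, then exposed to two-fold compound dilutions (final 0.5-10,000 ng/ml) for 96 h at 37° C, 5% CO2. Luciferin luminescence after 30 min; IC50 by sigmoidal variable-slope regression.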
With `CC1OB(O)c2cc(NC(=O)c3cn(-c4ccccc4)nn3)ccc21` (centres unmarked) [Example 2], the IC50 (commonly the midpoint of a concentration-inhibition curve) is not above 1000 nM.
On the same count and under the same terms, then `O=C(Nc1ccc2c(c1)B(O)OC21CCC1)c1cn(-c2ccccc2)nn1` [Example 3, N-(1-hydroxy-1H-spiro[benzo[c][1,2]oxaborole-3,1′-cyclobutan]-6-yl)-1-phenyl-1H-1,2,3-triazole-4-carboxamide], with not above 1000 nM; and `Cc1c(C(=O)Nc2ccc3c(c2)B(O)OC32CCC2)nnn1-c1ccccc1` [Example 4, N-(1-hydroxy-1H-spiro[benzo[c][1,2]oxaborole-3,1′-cyclobutan]-6-yl)-5-methyl-1-phenyl-1H-1,2,3-triazole-4-carboxamide], with not above 1000 nM; and `CC1OB(O)c2cc(NC(=O)c3cn(-c4ccc(F)cc4)nn3)ccc21` (centres unmarked) [Example 5], with not above 1000 nM.
Still for that read-out and setting: then `Cc1c(C(=O)Nc2ccc3c(c2)B(O)OC3C)nnn1-c1ccc(F)cc1` (centres unmarked) [Example 6, 1-(4-fluorophenyl)-N-(1-hydroxy-3-methyl-1,3-dihydrobenzo[c][1,2]oxaborol-6-yl)-5-methyl-1H-1,2,3-triazole-4-carboxamide], with not above 1000 nM; and `O=C(Nc1ccc2c(c1)B(O)OC21CCC1)c1cn(-c2ccc(F)cc2)nn1` [Example 7, 1-(4-fluorophenyl)-N-(1-hydroxy-1H-spiro[benzo[c][1,2]oxaborole-3,1′-cyclobutan]-6-yl)-1H-1,2,3-triazole-4-carboxamide], with 1100 to 9900 nM; and `O=C(Nc1ccc2c(c1)B(O)OC21CCC1)c1cn(-c2cccnc2)nn1` [Example 8, N-(1-hydroxy-1H-spiro[benzo[c][1,2]oxaborole-3,1′-cyclobutan]-6-yl)-1-(pyridin-3-yl)-1H-1,2,3-triazole-4-carboxamide], with 10000 to 50000 nM.
As to `Cc1c(C(=O)Nc2ccc3c(c2)B(O)OC32CCC2)nnn1-c1ccc(F)cc1` [Example 9, 1-(4-fluorophenyl)-N-(1-hydroxy-1H-spiro[benzo[c][1,2]oxaborole-3,1′-cyclobutan]-6-yl)-5-methyl-1H-1,2,3-triazole-4-carboxamide], the IC50 was in the range of 10000 to 50000 nM.
For `Cc1ccc(-n2cc(C(=O)Nc3ccc4c(c3)B(O)OC4)nn2)cc1` [Example 10, N-(1-hydroxy-1,3-dihydrobenzo[c][1,2]oxaborol-6-yl)-1-(p-tolyl)-1H-1,2,3-triazole-4-carboxamide], the 50% inhibitory concentration (IC50) is not above 1000 nM.
The same measure, in the same setting: then `Cc1ccc(-n2nnc(C(=O)Nc3ccc4c(c3)B(O)OC4)c2C)cc1` [Example 11, N-(1-hydroxy-1,3-dihydrobenzo[c][1,2]oxaborol-6-yl)-5-methyl-1-(p-tolyl)-1H-1,2,3-triazole-4-carboxamide], with 1100 to 9900 nM.
`CC1OB(O)c2cc(NC(=O)c3cn(-c4cccnc4)nn3)ccc21` (centres unmarked) [Example 12, N-(1-hydroxy-3-methyl-1,3-dihydrobenzo[c][1,2]oxaborol-6-yl)-1-(pyridin-3-yl)-1H-1,2,3-triazole-4-carboxamide]: the concentration for half-maximal inhibition (IC50) lay in the range of 1100 to 9900 nM.
On to `Cc1ccc(-n2nnc(C(=O)Nc3ccc4c(c3)B(O)OC4C)c2C)cc1` (centres unmarked) [Example 13, N-(1-hydroxy-3-methyl-1,3-dihydrobenzo[c][1,2]oxaborol-6-yl)-5-methyl-1-(p-tolyl)-1H-1,2,3-triazole-4-carboxamide], for which the concentration for half-maximal inhibition (IC50) is 1100 to 9900 nM.
With `Cc1c(C(=O)Nc2ccc3c(c2)B(O)OC3C)nnn1-c1cccnc1` (centres unmarked) [Example 14], the IC50 was 1100 to 9900 nM.
As to `Cc1ccc(-n2cc(C(=O)Nc3ccc4c(c3)B(O)OC43CCC3)nn2)cc1` [Example 15], the 50% inhibitory concentration (IC50) fell in the range of 10000 to 50000 nM.
For the compound `Cc1ccc(-n2nnc(C(=O)Nc3ccc4c(c3)B(O)OC43CCC3)c2C)cc1` [Example 16, N-(1-hydroxy-1H-spiro[benzo[c][1,2]oxaborole-3,1′-cyclobutan]-6-yl)-5-methyl-1-(p-tolyl)-1H-1,2,3-triazole-4-carboxamide], the IC50 fell in the range of 10000 to 50000 nM.
On the same count and under the same terms, then `Cc1c(C(=O)Nc2ccc3c(c2)B(O)OC32CCC2)nnn1-c1cccnc1` [Example 17, N-(1-hydroxy-1H-spiro[benzo[c][1,2]oxaborole-3,1′-cyclobutan]-6-yl)-5-methyl-1-(pyridin-3-yl)-1H-1,2,3-triazole-4-carboxamide], with 10000 to 50000 nM; and `Cc1ccc(-n2cc(C(=O)Nc3ccc4c(c3)B(O)OC4C)nn2)cc1` (centres unmarked) [Example 18, N-(1-hydroxy-3-methyl-1,3-dihydrobenzo[c][1,2]oxaborol-6-yl)-1-(p-tolyl)-1H-1,2,3-triazole-4-carboxamide], with not above 1000 nM.
Same read-out and setting: then `COc1ccc(-n2nnc(C(=O)Nc3ccc4c(c3)B(O)OC4C)c2C)cc1` (centres unmarked) [Example 19, N-(1-hydroxy-3-methyl-1,3-dihydrobenzo[c][1,2]oxaborol-6-yl)-1-(4-methoxyphenyl)-5-methyl-1H-1,2,3-triazole-4-carboxamide], with not above 1000 nM; and `COc1ccc(-n2nnc(C(=O)Nc3ccc4c(c3)B(O)OC43CCC3)c2C)cc1` [Example 20, N-(1-hydroxy-1H-spiro[benzo[c][1,2]oxaborole-3,1′-cyclobutan]-6-yl)-1-(4-methoxyphenyl)-5-methyl-1H-1,2,3-triazole-4-carboxamide], with 10000 to 50000 nM.
Turning to `COc1ccc(-n2cc(C(=O)Nc3ccc4c(c3)B(O)OC4)nn2)cc1` [Example 21, N-(1-hydroxy-1,3-dihydrobenzo[c][1,2]oxaborol-6-yl)-1-(4-methoxyphenyl)-1H-1,2,3-triazole-4-carboxamide], the 50% inhibitory concentration (IC50) is not above 1000 nM.
As to `COc1ccc(-n2cc(C(=O)Nc3ccc4c(c3)B(O)OC4C)nn2)cc1` (centres unmarked) [Example 22, N-(1-hydroxy-3-methyl-1,3-dihydrobenzo[c][1,2]oxaborol-6-yl)-1-(4-methoxyphenyl)-1H-1,2,3-triazole-4-carboxamide], the IC50 was not above 1000 nM.
On to `CC1OB(O)c2cc(NC(=O)c3cn(-c4ccccn4)nn3)ccc21` (centres unmarked) [Example 23, N-(1-hydroxy-3-methyl-1,3-dihydrobenzo[c][1,2]oxaborol-6-yl)-1-(pyridin-2-yl)-1H-1,2,3-triazole-4-carboxamide], for which the concentration for half-maximal inhibition (IC50) is not above 1000 nM.
In the case of `Cc1c(C(=O)Nc2ccc3c(c2)B(O)OC3C)nnn1-c1ccccn1` (centres unmarked) [Example 24, N-(1-hydroxy-3-methyl-1,3-dihydrobenzo[c][1,2]oxaborol-6-yl)-5-methyl-1-(pyridin-2-yl)-1H-1,2,3-triazole-4-carboxamide], the IC50 is not above 1000 nM.
Still for that read-out and setting: in the case of `COc1ccc(-n2cc(C(=O)Nc3ccc4c(c3)B(O)OC43CCC3)nn2)cc1` [Example 25, N-(1-hydroxy-1H-spiro[benzo[c][1,2]oxaborole-3,1′-cyclobutan]-6-yl)-1-(4-methoxyphenyl)-1H-1,2,3-triazole-4-carboxamide] it was 10000 to 50000 nM; in that of `O=C(Nc1ccc2c(c1)B(O)OC21CCC1)c1cn(-c2ccccn2)nn1` [Example 26, N-(1-hydroxy-1H-spiro[benzo[c][1,2]oxaborole-3,1′-cyclobutan]-6-yl)-1-(pyridin-2-yl)-1H-1,2,3-triazole-4-carboxamide], 1100 to 9900 nM.
`O=C(Nc1ccc2c(c1)B(O)OC2)c1cn(-c2ccccn2)nn1` [Example 61, N-(1-hydroxy-1,3-dihydrobenzo[c][1,2]oxaborol-6-yl)-1-(pyridin-2-yl)-1H-1,2,3-triazole-4-carboxamide]: the IC50 lay in the range of 1100 to 9900 nM.
Take `O=C(Nc1ccc2c(c1)B(O)OC2)c1nnn(-c2ccccc2F)c1C(F)(F)F` [Example 67, 1-(2-Fluorophenyl)-N-(1-hydroxy-1,3-dihydrobenzo[c][1,2]oxaborol-6-yl)-5-(trifluoromethyl)-1H-1,2,3-triazole-4-carboxamide]: the half-inhibitory concentration (IC50) was not above 1000 nM.
As to `O=C(Nc1ccc2c(c1)B(O)OC2)c1nnn(-c2ccccc2)c1C(F)(F)F` [Example 68, N-(1-hydroxy-1,3-dihydrobenzo[c][1,2]oxaborol-6-yl)-1-phenyl-5-(trifluoromethyl)-1H-1,2,3-triazole-4-carboxamide], the half-maximal inhibitory concentration (IC50) was not above 1000 nM.
On the same count and under the same terms, then `O=C(Nc1ccc2c(c1)B(O)OC2)c1nnn(-c2cccc(F)c2)c1C(F)(F)F` [Example 69, 1-(3-Fluorophenyl)-N-(1-hydroxy-1,3-dihydrobenzo[c][1,2]oxaborol-6-yl)-5-(trifluoromethyl)-1H-1,2,3-triazole-4-carboxamide], with not above 1000 nM; and `O=C(Nc1ccc2c(c1)B(O)OC2)c1nnn(-c2ccc(F)cc2)c1C(F)(F)F` [Example 70, 1-(4-Fluorophenyl)-N-(1-hydroxy-1,3-dihydrobenzo[c][1,2]oxaborol-6-yl)-5-(trifluoromethyl)-1H-1,2,3-triazole-4-carboxamide], with not above 1000 nM; and `O=C(Nc1ccc2c(c1)B(O)OC2)c1nnn(-c2cccnc2)c1C(F)(F)F` [Example 71, N-(1-hydroxy-1,3-dihydrobenzo[c][1,2]oxaborol-6-yl)-1-(pyridin-3-yl)-5-(trifluoromethyl)-1H-1,2,3-triazole-4-carboxamide], with not above 1000 nM.
In the case of `COc1ccc(-n2nnc(C(=O)Nc3ccc4c(c3)B(O)OC4)c2C)cc1` [Example 91, N-(1-hydroxy-1,3-dihydrobenzo[c][1,2]oxaborol-6-yl)-1-(4-methoxyphenyl)-5-methyl-1H-1,2,3-triazole-4-carboxamide], the 50% inhibitory concentration (IC50) was in the range of 1100 to 9900 nM.

A further assay deals with bloodstream forms of T. b. rhodesiense STIB 900. The experiment in a line: T. brucei rhodesiense STIB 900 growth inhibition assay. It is filed as cell-based. Particulars: Trypanosoma brucei, 72 h, read-out: IC50: I Org. Growth T. brucei rhodesiense STIB 900, 3 d [uM]. An outline of the steps: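 Bloodstream-form STIB 900 (10^4/well) were cultured in supplemented MEM with 15% horse serum and compound (90 to 0.123 μg/ml, 3-fold steps) for 72 h at 37 °C, 5% CO2. Viability was read by Alamar Blue fluorescence (ex 536/em 588 nm) after a further 2-4 h.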
In the case of `O=C(Nc1ccc2c(c1)B(O)OC2)c1nnn(-c2ccccc2)c1C(F)(F)F` [Example 68, N-(1-hydroxy-1,3-dihydrobenzo[c][1,2]oxaborol-6-yl)-1-phenyl-5-(trifluoromethyl)-1H-1,2,3-triazole-4-carboxamide], the half-inhibitory concentration (IC50) is less than 0.1 µM.

The same assay, now with this note: Trypanosoma brucei; bloodstream forms, 72 h, Alamar Blue; protocol of Example 110; read-out: IC50: I Org. Growth T. brucei rhodesiense STIB 900, 3 d.
Take `O=C(Nc1ccc2c(c1)B(O)OC2)c1cn(-c2ccccn2)nn1` [Example 61, N-(1-hydroxy-1,3-dihydrobenzo[c][1,2]oxaborol-6-yl)-1-(pyridin-2-yl)-1H-1,2,3-triazole-4-carboxamide]: the IC50 is less than 0.1 µM.
The same measure, in the same setting: in the case of `O=C(Nc1ccc2c(c1)B(O)OC2)c1nnn(-c2ccccc2F)c1C(F)(F)F` [Example 67, 1-(2-Fluorophenyl)-N-(1-hydroxy-1,3-dihydrobenzo[c][1,2]oxaborol-6-yl)-5-(trifluoromethyl)-1H-1,2,3-triazole-4-carboxamide] it was 0.1 to 0.3 µM.
Regarding `O=C(Nc1ccc2c(c1)B(O)OC2)c1nnn(-c2cccc(F)c2)c1C(F)(F)F` [Example 69, 1-(3-Fluorophenyl)-N-(1-hydroxy-1,3-dihydrobenzo[c][1,2]oxaborol-6-yl)-5-(trifluoromethyl)-1H-1,2,3-triazole-4-carboxamide], the concentration for half-maximal inhibition (IC50) lay within 0.1 to 0.3 µM.
`O=C(Nc1ccc2c(c1)B(O)OC2)c1nnn(-c2ccc(F)cc2)c1C(F)(F)F` [Example 70, 1-(4-Fluorophenyl)-N-(1-hydroxy-1,3-dihydrobenzo[c][1,2]oxaborol-6-yl)-5-(trifluoromethyl)-1H-1,2,3-triazole-4-carboxamide]: the 50% inhibitory concentration (IC50) is 0.31 to 10 µM.
Regarding `O=C(Nc1ccc2c(c1)B(O)OC2)c1nnn(-c2cccnc2)c1C(F)(F)F` [Example 71, N-(1-hydroxy-1,3-dihydrobenzo[c][1,2]oxaborol-6-yl)-1-(pyridin-3-yl)-5-(trifluoromethyl)-1H-1,2,3-triazole-4-carboxamide], the IC50 was 0.1 to 0.3 µM.
